Experimental data taken from paper PMC6364417, “Kinase inhibitor library screening identifies synergistic drug combinations effective in sensitive and resistant melanoma cells” (Journal of Experimental & Clinical Cancer Research : CR, 2019).

Legend:
Assay in all cases: Kinase inhibitor library screening, PrestoBlue cell viability, 1 or 10 μM, 72 h
[1] = tested on: A375 cells (parental); conditions: for cell viability (kinase inhibitor library screening): A375 Parental; for viability at 1 µM / viability at 10 µM: Homo sapiens, A-375, 72 h; for viability at 1 µM: read-out: cell viability, A375 Parental, 1μΜ; for viability at 10 µM: read-out: cell viability, A375 Parental, 10μΜ
[2] = tested on: A375-XP cells (Vemurafenib-resistant); conditions: for cell viability (kinase inhibitor library screening): A375 XP; for viability at 1 µM / viability at 10 µM: Homo sapiens, A-375, 72 h; for viability at 1 µM: read-out: cell viability, A375 XP, 1μΜ; for viability at 10 µM: read-out: cell viability, A375 XP, 10μΜ
[3] = tested on: IGR37-XP cells (Vemurafenib-resistant); conditions: for cell viability (kinase inhibitor library screening): IGR37 XP; for viability at 1 µM / viability at 10 µM: Homo sapiens, IGR-37, 72 h; for viability at 1 µM: read-out: cell viability, IGR37 XP, 1μΜ; for viability at 10 µM: read-out: cell viability, IGR37 XP, 10μΜ
[4] = tested on: IGR37-GP cells (Dabrafenib-resistant); conditions: for cell viability (kinase inhibitor library screening): IGR37 GP; for viability at 1 µM / viability at 10 µM: Homo sapiens, IGR-37, 72 h; for viability at 1 µM: read-out: cell viability, IGR37 GP, 1μΜ; for viability at 10 µM: read-out: cell viability, IGR37 GP, 10μΜ
[5] = tested on: 501Mel-GP cells (Dabrafenib-resistant); conditions: for cell viability (kinase inhibitor library screening): 501Mel GP; for viability at 1 µM / viability at 10 µM: Homo sapiens; for viability at 1 µM: read-out: cell viability, 501Mel GP, 1μΜ; for viability at 10 µM: read-out: cell viability, 501Mel GP, 10μΜ
[6] = tested on: 501Mel-XP cells (Vemurafenib-resistant); conditions: for cell viability (kinase inhibitor library screening): 501Mel XP; for viability at 1 µM / viability at 10 µM: Homo sapiens; for viability at 1 µM: read-out: cell viability, 501Mel XP, 1μΜ; for viability at 10 µM: read-out: cell viability, 501Mel XP, 10μΜ
[7] = tested on: 501Mel cells (parental); conditions: for cell viability (kinase inhibitor library screening): 501Mel Parental; for viability at 1 µM / viability at 10 µM: Homo sapiens; for viability at 1 µM: read-out: cell viability, 501Mel Parental, 1μΜ; for viability at 10 µM: read-out: cell viability, 501Mel Parental, 10μΜ
Procedure, shortened: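 Sensitive parental cells and their resistant derivatives were exposed to library compounds for 72 h. Values represent viability as a percentage of untreated cells.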

[8] = tested on: IGR37 cells (parental); conditions: for cell viability (kinase inhibitor library screening): IGR37 Parental; for viability at 1 µM / viability at 10 µM: Homo sapiens, IGR-37, 72 h; for viability at 1 µM: read-out: cell viability, IGR37 Parental, 1μΜ; for viability at 10 µM: read-out: cell viability, IGR37 Parental, 10μΜ
[9] = tested on: A375-GP cells (Dabrafenib-resistant); conditions: for cell viability (kinase inhibitor library screening): A375 GP; for viability at 1 µM / viability at 10 µM: Homo sapiens, A-375, 72 h; for viability at 1 µM: read-out: cell viability, A375 GP, 1μΜ; for viability at 10 µM: read-out: cell viability, A375 GP, 10μΜ

Question: How did the “cell viability (kinase inhibitor library screening)” value ([1]; 10μΜ, 72 h) turn out when O=C(Nc1c[nH]nc1-c1nc2ccc(CN3CCOCC3)cc2[nH]1)NC1CC1 [AT9283] was run?
Answer: 6.2%

Question: What about the “cell viability (kinase inhibitor library screening)” value ([1]; 1μΜ, 72 h) of the same molecule?
Answer: 27.1%

Question: What about the “cell viability (kinase inhibitor library screening)” value ([2]; 1μΜ, 72 h) of the same molecule?
Answer: 38.4%

Question: What about the “cell viability (kinase inhibitor library screening)” value ([2]; 10μΜ, 72 h) of the same molecule?
Answer: 9.8%

Question: And the “cell viability (kinase inhibitor library screening)” value ([3]; 1μΜ, 72 h)?
Answer: 82.7%

Question: And the “cell viability (kinase inhibitor library screening)” value ([3]; 10μΜ, 72 h)?
Answer: 1.5%

Question: What about the “cell viability (kinase inhibitor library screening)” value ([4]; 1μΜ, 72 h) of the same molecule?
Answer: 97.8%

Question: What about the “cell viability (kinase inhibitor library screening)” value ([4]; 10μΜ, 72 h) of the same molecule?
Answer: 3.7%

Question: What about the “cell viability (kinase inhibitor library screening)” value ([5]; 1μΜ, 72 h) of the same molecule?
Answer: 72.2%

Question: What about the “cell viability (kinase inhibitor library screening)” value ([5]; 10μΜ, 72 h) of the same molecule?
Answer: 0.469%

Question: And the “cell viability (kinase inhibitor library screening)” value ([6]; 1μΜ, 72 h)?
Answer: 63.4%

Question: What about the “cell viability (kinase inhibitor library screening)” value ([6]; 10μΜ, 72 h) of the same molecule?
Answer: 0.184%

Question: And the “cell viability (kinase inhibitor library screening)” value ([7]; 1μΜ, 72 h)?
Answer: 67.5%

Question: And the “cell viability (kinase inhibitor library screening)” value ([7]; 10μΜ, 72 h)?
Answer: 2.0%

Question: What about the “cell viability (kinase inhibitor library screening)” value ([8]; 1μΜ, 72 h) of the same molecule?
Answer: 90.9%

Question: And the “cell viability (kinase inhibitor library screening)” value ([8]; 10μΜ, 72 h)?
Answer: 1.1%

Question: What about the “cell viability (kinase inhibitor library screening)” value ([9]; 1μΜ, 72 h) of the same molecule?
Answer: 32.2%

Question: What about the “cell viability (kinase inhibitor library screening)” value ([9]; 10μΜ, 72 h) of the same molecule?
Answer: 3.3%

Question: Which results are given for Cc1cc(Nc2nc(N[C@@H](C)c3ccc(F)cc3)c(C#N)cc2F)[nH]n1 [AZ 960]?
Answer: viability at 1 µM [1]: 48.9%; viability at 10 µM [1]: 40%; viability at 1 µM [2]: 61.3%; viability at 10 µM [2]: 46.1%; viability at 1 µM [3]: 81.1%; viability at 10 µM [3]: 39.7%; viability at 1 µM [4]: 87.2%; viability at 10 µM [4]: 73.9%; viability at 1 µM ([5]; 72 h): 34.2%; viability at 10 µM ([5]; 72 h): 66.8%; viability at 1 µM ([6]; 72 h): 39.4%; viability at 10 µM ([6]; 72 h): 60.4%; viability at 1 µM ([7]; 72 h): 49.1%; viability at 10 µM ([7]; 72 h): 65.1%; viability at 1 µM [8]: 83.9%; viability at 10 µM [8]: 90.7%; viability at 1 µM [9]: 44%; viability at 10 µM [9]: 37.8%

Question: How did the viability at 1 µM [1] turn out when CCS(=O)(=O)N1CC(CC#N)(n2cc(-c3ncnc4[nH]ccc34)cn2)C1 [Baricitinib (LY3009104)] was run?
Answer: 103%

Question: What about the viability at 10 µM [1] of the same molecule?
Answer: 94.8%

Question: What about the viability at 1 µM [2] of the same molecule?
Answer: 105%

Question: And the viability at 10 µM [2]?
Answer: 102%

Question: What about the viability at 1 µM [3] of the same molecule?
Answer: 96.5%

Question: And the viability at 10 µM [3]?
Answer: 75.3%

Question: And the viability at 1 µM [4]?
Answer: 92%

Question: What about the viability at 10 µM [4] of the same molecule?
Answer: 91.5%

Question: And the viability at 1 µM ([5]; 72 h)?
Answer: 104%

Question: What about the viability at 10 µM ([5]; 72 h) of the same molecule?
Answer: 83.8%

Question: What about the viability at 1 µM ([6]; 72 h) of the same molecule?
Answer: 98.5%

Question: What about the viability at 10 µM ([6]; 72 h) of the same molecule?
Answer: 74.5%

Question: What about the viability at 1 µM ([7]; 72 h) of the same molecule?
Answer: 95%

Question: And the viability at 10 µM ([7]; 72 h)?
Answer: 88.9%

Question: What about the viability at 1 µM [8] of the same molecule?
Answer: 99.6%

Question: And the viability at 10 µM [8]?
Answer: 98.8%

Question: And the viability at 1 µM [9]?
Answer: 106%

Question: What about the viability at 10 µM [9] of the same molecule?
Answer: 88.4%

Question: COc1cc2/c(=N/c3ccc(Br)cc3F)nc[nH]c2cc1OCC1CCN(C)CC1 [Vandetanib (Zactima)] was tested. Which “cell viability (kinase inhibitor library screening)” value ([1]; 1μΜ, in %) did it give?
Answer: 98.6

Question: And the “cell viability (kinase inhibitor library screening)” value ([1]; 10μΜ, in %)?
Answer: 48.0

Question: What about the “cell viability (kinase inhibitor library screening)” value ([2]; 1μΜ, in %) of the same molecule?
Answer: 103.0

Question: What about the “cell viability (kinase inhibitor library screening)” value ([2]; 10μΜ, in %) of the same molecule?
Answer: 39.3

Question: And the “cell viability (kinase inhibitor library screening)” value ([3]; 1μΜ, in %)?
Answer: 94.5

Question: And the “cell viability (kinase inhibitor library screening)” value ([3]; 10μΜ, in %)?
Answer: 3.2

Question: What about the “cell viability (kinase inhibitor library screening)” value ([4]; 1μΜ, in %) of the same molecule?
Answer: 93.4

Question: What about the “cell viability (kinase inhibitor library screening)” value ([4]; 10μΜ, in %) of the same molecule?
Answer: 31.3

Question: And the “cell viability (kinase inhibitor library screening)” value ([5]; 10μΜ, in %)?
Answer: 0.0201

Question: And the “cell viability (kinase inhibitor library screening)” value ([6]; 1μΜ, in %)?
Answer: 89.6

Question: What about the “cell viability (kinase inhibitor library screening)” value ([6]; 10μΜ, in %) of the same molecule?
Answer: -0.445

Question: And the “cell viability (kinase inhibitor library screening)” value ([7]; 1μΜ, in %)?
Answer: 98.8

Question: What about the “cell viability (kinase inhibitor library screening)” value ([7]; 10μΜ, in %) of the same molecule?
Answer: 0.4

Question: And the “cell viability (kinase inhibitor library screening)” value ([8]; 1μΜ, in %)?
Answer: 96.5

Question: And the “cell viability (kinase inhibitor library screening)” value ([8]; 10μΜ, in %)?
Answer: 11.2

Question: And the “cell viability (kinase inhibitor library screening)” value ([9]; 1μΜ, in %)?
Answer: 98.8

Question: What about the “cell viability (kinase inhibitor library screening)” value ([9]; 10μΜ, in %) of the same molecule?
Answer: 19.2
